Laboratory results: PMC9067983, “Identification of highly selective type II kinase inhibitors with chiral peptidomimetic tails” (Journal of Enzyme Inhibition and Medicinal Chemistry, 2022)
Where a SMILES comes first, the peptide text is derived from it. [ ]: non-standard residue; d: D form. The star is where a group is joined. X1 = Cc1ccc(Nc2ncc3c(n2)N(C)C(=O)N(c2cc(C(=O)*)ccc2C)C3)cn1; Aib = CC(C)(N)C(=O)O

Columns and labels:
Test in all cases: kinase selectivity profiling
Assay type in all cases: biochemical
Details in all cases: 10µM ATP, read-out: % inhibition (relative to DMSO)
Aurora B = target: T1, Aurora B (Homo sapiens, UniProt Q96GD4)
T1 construct: purchased Reaction Biology Corp
Experimental: (§1) Full panel kinase profiling and kinase IC50 measurement were performed by using Reaction Biology Corp. (San Diego, USA).

BRK = target: T2, BRK (Homo sapiens, UniProt Q13882)
T2 construct: purchased Reaction Biology Corp
Experimental: as §1

Blk = target: T3, Blk (Homo sapiens, UniProt P51451)
T3 construct: purchased Reaction Biology Corp
Experimental: as §1

CAMK1b = target: T4, CAMK1b (Homo sapiens, UniProt Q6P2M8)
T4 construct: purchased Reaction Biology Corp
Experimental: as §1

CDK2/cyclin E2 = target: T5, CDK2/cyclin E2 (Homo sapiens, UniProt P24941)
T5 construct: purchased Reaction Biology Corp
Experimental: as §1

CDK3/cyclin E = target: T6, CDK3/cyclin E (Homo sapiens, UniProt Q00526)
T6 construct: purchased Reaction Biology Corp
Experimental: as §1

CLK1 = target: T7, CLK1 (Homo sapiens, UniProt P49759)
T7 construct: purchased Reaction Biology Corp
T7 sequence (P49759 whole entry): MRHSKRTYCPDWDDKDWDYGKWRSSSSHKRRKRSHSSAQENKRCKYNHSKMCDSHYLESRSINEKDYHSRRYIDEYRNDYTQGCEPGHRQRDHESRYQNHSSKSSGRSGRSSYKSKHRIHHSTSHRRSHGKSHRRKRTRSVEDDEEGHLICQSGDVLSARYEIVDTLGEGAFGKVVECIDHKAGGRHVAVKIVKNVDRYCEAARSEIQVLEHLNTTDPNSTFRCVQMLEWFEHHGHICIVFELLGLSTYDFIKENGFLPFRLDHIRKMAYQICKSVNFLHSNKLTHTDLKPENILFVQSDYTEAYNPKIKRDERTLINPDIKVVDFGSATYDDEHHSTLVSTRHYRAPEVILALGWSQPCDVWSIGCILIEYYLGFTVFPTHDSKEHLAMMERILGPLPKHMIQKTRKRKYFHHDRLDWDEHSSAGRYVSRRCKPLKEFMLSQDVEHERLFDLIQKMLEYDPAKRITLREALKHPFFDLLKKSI
Experimental: as §1

CLK3 = target: T8, CLK3 (Homo sapiens, UniProt P49761)
T8 construct: purchased Reaction Biology Corp
T8 sequence (P49761 whole entry): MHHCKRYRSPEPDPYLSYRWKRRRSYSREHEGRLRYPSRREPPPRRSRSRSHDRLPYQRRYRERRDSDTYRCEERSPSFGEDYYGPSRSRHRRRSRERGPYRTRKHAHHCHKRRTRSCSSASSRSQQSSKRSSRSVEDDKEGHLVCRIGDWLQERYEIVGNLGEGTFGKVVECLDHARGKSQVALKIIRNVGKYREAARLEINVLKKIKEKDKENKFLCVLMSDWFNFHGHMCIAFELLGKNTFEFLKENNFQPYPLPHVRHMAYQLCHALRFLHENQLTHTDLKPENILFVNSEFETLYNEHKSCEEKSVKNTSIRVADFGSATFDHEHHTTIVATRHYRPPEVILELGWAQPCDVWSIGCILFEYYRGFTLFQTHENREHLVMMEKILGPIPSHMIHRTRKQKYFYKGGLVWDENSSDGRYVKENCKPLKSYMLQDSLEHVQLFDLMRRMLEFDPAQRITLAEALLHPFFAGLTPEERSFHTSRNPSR
Experimental: as §1

DYRK1/DYRK1A = target: T9, DYRK1/DYRK1A (Homo sapiens, UniProt Q13627)
T9 construct: purchased Reaction Biology Corp
Experimental: as §1

DYRK2 = target: T10, DYRK2 (Homo sapiens, UniProt Q92630)
T10 construct: purchased Reaction Biology Corp
Experimental: as §1

EPHA6 = target: T11, EPHA6 (Homo sapiens, UniProt Q9UF33)
T11 construct: purchased Reaction Biology Corp
Experimental: as §1

EPHB1 = target: T12, EPHB1 (Homo sapiens, UniProt P54762)
T12 construct: purchased Reaction Biology Corp
Experimental: as §1

EPHB3 = target: T13, EPHB3 (Homo sapiens, UniProt P54753)
T13 construct: purchased Reaction Biology Corp
Experimental: as §1

FES/FPS = target: T14, FES/FPS (Homo sapiens, UniProt P07332)
T14 construct: purchased Reaction Biology Corp
Experimental: as §1

GRK4 = target: T15, GRK4 (Homo sapiens, UniProt P32298)
T15 construct: purchased Reaction Biology Corp
Experimental: as §1

HIPK2 = target: T16, HIPK2 (Homo sapiens, UniProt Q9H2X6)
T16 construct: purchased Reaction Biology Corp
Experimental: as §1

LATS1 = target: T17, LATS1 (Homo sapiens, UniProt O95835)
T17 construct: purchased Reaction Biology Corp
Experimental: as §1

LATS2 = target: T18, LATS2 (Homo sapiens, UniProt Q9NRM7)
T18 construct: purchased Reaction Biology Corp
Experimental: as §1

LKB1 = target: T19, LKB1 (Homo sapiens, UniProt Q15831)
T19 construct: purchased Reaction Biology Corp
Experimental: as §1

MEK2 = target: T20, MEK2 (Homo sapiens, UniProt P36507)
T20 construct: purchased Reaction Biology Corp
Experimental: as §1

MINK/MINK1 = target: T21, MINK/MINK1 (Homo sapiens, UniProt Q8N4C8)
T21 construct: purchased Reaction Biology Corp
Experimental: as §1

MKK4 = target: T22, MKK4 (Homo sapiens, UniProt P45985)
T22 construct: purchased Reaction Biology Corp
Experimental: as §1

MKK7 = target: T23, MKK7 (Homo sapiens, UniProt O14733)
T23 construct: purchased Reaction Biology Corp
Experimental: as §1

MLCK/MYLK = target: T24, MLCK/MYLK (Homo sapiens, UniProt Q15746)
T24 construct: purchased Reaction Biology Corp
T24 sequence (Q15746 whole entry): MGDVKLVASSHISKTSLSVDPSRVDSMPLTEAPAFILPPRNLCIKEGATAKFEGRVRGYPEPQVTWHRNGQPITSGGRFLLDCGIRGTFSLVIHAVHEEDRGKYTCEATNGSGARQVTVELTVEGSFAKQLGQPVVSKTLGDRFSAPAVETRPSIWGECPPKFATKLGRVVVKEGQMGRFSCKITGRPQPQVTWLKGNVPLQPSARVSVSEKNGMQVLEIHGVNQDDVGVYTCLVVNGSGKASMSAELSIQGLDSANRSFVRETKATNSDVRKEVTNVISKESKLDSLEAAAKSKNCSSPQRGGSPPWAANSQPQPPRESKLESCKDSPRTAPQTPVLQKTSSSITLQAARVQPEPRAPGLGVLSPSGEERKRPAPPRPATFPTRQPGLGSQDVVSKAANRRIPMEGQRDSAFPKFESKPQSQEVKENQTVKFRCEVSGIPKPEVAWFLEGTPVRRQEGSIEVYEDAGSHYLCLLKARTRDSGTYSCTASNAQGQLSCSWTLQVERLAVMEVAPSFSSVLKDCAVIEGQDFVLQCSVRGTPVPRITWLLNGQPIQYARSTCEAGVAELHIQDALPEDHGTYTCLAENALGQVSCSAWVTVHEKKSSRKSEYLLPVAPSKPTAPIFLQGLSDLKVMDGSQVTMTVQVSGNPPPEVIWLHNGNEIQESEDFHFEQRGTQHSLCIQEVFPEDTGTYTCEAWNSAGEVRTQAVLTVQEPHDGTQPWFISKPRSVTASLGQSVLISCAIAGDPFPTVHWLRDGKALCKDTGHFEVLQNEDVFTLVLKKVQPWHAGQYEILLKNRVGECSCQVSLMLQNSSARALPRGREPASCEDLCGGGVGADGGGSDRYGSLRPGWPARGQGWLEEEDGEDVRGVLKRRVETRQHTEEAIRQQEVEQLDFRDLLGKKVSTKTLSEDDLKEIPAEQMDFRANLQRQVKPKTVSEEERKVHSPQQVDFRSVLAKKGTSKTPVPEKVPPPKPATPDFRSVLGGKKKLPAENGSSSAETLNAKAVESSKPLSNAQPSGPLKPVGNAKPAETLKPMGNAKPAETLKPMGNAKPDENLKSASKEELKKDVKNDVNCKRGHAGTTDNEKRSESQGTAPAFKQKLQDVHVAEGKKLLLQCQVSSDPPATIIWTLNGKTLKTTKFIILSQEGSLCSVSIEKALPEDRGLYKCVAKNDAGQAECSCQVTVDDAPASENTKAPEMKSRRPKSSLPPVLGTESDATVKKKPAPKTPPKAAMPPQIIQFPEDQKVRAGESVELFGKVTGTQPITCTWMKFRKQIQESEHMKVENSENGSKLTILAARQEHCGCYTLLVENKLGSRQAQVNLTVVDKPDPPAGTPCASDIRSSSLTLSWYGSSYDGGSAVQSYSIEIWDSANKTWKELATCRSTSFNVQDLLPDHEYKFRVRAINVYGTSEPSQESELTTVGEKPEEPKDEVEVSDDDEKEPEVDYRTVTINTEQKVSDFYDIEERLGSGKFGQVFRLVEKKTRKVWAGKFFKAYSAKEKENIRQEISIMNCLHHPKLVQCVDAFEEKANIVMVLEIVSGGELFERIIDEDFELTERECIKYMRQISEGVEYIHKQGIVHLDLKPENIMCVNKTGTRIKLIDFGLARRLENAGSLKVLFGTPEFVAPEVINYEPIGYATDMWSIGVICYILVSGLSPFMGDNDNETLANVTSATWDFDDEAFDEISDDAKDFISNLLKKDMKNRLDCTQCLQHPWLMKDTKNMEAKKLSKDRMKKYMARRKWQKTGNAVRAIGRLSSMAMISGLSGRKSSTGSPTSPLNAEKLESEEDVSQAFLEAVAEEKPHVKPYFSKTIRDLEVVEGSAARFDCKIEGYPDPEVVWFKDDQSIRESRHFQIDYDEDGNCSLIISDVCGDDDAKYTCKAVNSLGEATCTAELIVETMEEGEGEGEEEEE
Experimental: as §1

MLCK2/MYLK2 = target: T25, MLCK2/MYLK2 (Homo sapiens, UniProt Q9H1R3)
T25 construct: purchased Reaction Biology Corp
Experimental: as §1

MLK3/MAP3K11 = target: T26, MLK3/MAP3K11 (Homo sapiens, UniProt Q16584)
T26 construct: purchased Reaction Biology Corp
T26 sequence (Q16584 whole entry): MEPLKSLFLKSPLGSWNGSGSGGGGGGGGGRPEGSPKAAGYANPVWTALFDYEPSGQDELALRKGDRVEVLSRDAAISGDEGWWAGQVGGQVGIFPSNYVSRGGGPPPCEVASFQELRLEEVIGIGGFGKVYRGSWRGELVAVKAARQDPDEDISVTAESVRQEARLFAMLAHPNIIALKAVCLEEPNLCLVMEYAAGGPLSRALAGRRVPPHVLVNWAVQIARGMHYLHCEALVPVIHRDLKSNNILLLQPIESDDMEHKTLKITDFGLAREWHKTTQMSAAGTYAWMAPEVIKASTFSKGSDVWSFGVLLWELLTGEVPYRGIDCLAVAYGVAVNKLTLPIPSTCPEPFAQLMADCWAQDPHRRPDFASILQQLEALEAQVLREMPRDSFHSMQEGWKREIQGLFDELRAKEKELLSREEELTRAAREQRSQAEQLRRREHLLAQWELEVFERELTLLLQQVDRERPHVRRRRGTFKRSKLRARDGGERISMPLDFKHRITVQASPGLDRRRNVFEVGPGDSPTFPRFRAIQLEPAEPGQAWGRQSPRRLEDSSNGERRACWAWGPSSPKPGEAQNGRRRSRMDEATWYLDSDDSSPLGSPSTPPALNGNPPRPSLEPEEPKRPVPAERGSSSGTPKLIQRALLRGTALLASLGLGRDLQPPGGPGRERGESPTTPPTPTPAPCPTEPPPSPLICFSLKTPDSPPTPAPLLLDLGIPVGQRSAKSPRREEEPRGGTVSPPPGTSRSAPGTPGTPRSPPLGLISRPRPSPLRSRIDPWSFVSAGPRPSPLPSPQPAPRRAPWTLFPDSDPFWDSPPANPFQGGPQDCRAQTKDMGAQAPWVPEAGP
Experimental: as §1

MRCKa/CDC42BPA = target: T27, MRCKa/CDC42BPA (Homo sapiens, UniProt Q5VT25)
T27 construct: purchased Reaction Biology Corp
Experimental: as §1

MUSK = target: T28, MUSK (Homo sapiens, UniProt O15146)
T28 construct: purchased Reaction Biology Corp
Experimental: as §1

NEK3 = target: T29, NEK3 (Homo sapiens, UniProt P51956)
T29 construct: purchased Reaction Biology Corp
T29 sequence (P51956 whole entry): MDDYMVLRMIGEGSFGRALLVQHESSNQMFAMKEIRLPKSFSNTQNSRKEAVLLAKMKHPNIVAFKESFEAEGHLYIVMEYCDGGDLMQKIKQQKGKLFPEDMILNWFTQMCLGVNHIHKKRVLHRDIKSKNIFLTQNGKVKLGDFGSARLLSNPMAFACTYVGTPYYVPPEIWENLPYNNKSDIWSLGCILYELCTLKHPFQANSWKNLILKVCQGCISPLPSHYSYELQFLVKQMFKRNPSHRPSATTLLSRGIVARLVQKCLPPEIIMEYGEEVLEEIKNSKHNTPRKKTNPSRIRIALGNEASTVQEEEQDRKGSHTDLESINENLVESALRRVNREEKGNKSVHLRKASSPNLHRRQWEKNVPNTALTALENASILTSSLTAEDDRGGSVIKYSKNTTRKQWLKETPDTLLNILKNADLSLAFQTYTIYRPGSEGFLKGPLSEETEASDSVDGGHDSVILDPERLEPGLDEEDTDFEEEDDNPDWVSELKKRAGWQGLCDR
Experimental: as §1

NEK9 = target: T30, NEK9 (Homo sapiens, UniProt Q8TD19)
T30 construct: purchased Reaction Biology Corp
Experimental: as §1

PAK1 = target: T31, PAK1 (Homo sapiens, UniProt Q13153)
T31 construct: purchased Reaction Biology Corp
Experimental: as §1

PKAcg = target: T32, PKAcg (Homo sapiens, UniProt P22612)
T32 construct: purchased Reaction Biology Corp
Experimental: as §1

PKG2/PRKG2 = target: T33, PKG2/PRKG2 (Homo sapiens, UniProt Q13237)
T33 construct: purchased Reaction Biology Corp
Experimental: as §1

RET = target: T34, RET (Homo sapiens, UniProt P07949)
T34 construct: purchased Reaction Biology Corp
Experimental: as §1

ROCK2 = target: T35, ROCK2 (Homo sapiens, UniProt O75116)
T35 construct: purchased Reaction Biology Corp
Experimental: as §1

SRPK2 = target: T36, SRPK2 (Homo sapiens, UniProt P78362)
T36 construct: purchased Reaction Biology Corp
Experimental: as §1

STK32C/YANK3 = target: T37, STK32C/YANK3 (Homo sapiens, UniProt Q86UX6)
T37 construct: purchased Reaction Biology Corp
Experimental: as §1

STK38/NDR1 = target: T38, STK38/NDR1 (Homo sapiens, UniProt Q15208)
T38 construct: purchased Reaction Biology Corp
Experimental: as §1

SYK = target: T39, SYK (Homo sapiens, UniProt P43405)
T39 construct: purchased Reaction Biology Corp
Experimental: as §1

TLK2 = target: T40, TLK2 (Homo sapiens, UniProt Q86UE8)
T40 construct: purchased Reaction Biology Corp
T40 sequence (Q86UE8 whole entry): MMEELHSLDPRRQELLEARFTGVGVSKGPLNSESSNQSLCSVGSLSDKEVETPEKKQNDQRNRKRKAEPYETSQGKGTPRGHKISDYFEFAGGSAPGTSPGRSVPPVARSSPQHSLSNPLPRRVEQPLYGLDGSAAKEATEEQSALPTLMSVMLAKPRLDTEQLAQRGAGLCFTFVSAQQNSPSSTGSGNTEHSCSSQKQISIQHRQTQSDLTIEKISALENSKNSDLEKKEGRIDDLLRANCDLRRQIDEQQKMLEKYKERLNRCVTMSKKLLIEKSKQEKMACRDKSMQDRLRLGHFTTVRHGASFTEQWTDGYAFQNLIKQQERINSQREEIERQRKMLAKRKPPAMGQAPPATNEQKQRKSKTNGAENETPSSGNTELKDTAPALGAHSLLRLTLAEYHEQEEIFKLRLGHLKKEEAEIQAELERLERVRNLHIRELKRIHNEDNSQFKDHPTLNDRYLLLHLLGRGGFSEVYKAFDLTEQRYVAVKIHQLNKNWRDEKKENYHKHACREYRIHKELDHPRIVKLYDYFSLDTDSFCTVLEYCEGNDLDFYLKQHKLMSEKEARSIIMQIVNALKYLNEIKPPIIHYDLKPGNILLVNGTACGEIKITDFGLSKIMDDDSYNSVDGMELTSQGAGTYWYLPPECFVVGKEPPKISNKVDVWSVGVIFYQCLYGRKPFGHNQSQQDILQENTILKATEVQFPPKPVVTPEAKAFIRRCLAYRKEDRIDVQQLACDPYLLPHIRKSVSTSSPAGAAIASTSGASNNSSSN
Experimental: as §1

TTBK2 = target: T41, TTBK2 (Homo sapiens, UniProt Q6IQ55)
T41 construct: purchased Reaction Biology Corp
Experimental: as §1

YES/YES1 = target: T42, YES/YES1 (Homo sapiens, UniProt P07947)
T42 construct: purchased Reaction Biology Corp
Experimental: as §1

c-Kit = target: T43, c-Kit (Homo sapiens, UniProt P10721)
T43 construct: purchased Reaction Biology Corp
Experimental: as §1

Cc1ccc(Nc2ncc3c(n2)N(C)C(=O)N(c2cc(C(=O)N[C@H](C(=O)N4CCC[C@H]4C(=O)NC(C)(C)C(=O)N[C@@H](CC(C)C)C(=O)N(C)C)C(C)C)ccc2C)C3)cn1 [7a, (S)-N-(1-(((S)-1-(dimethylamino)-4-methyl-1-oxopentan-2-yl)amino)-2-methyl-1-oxopropan-2-yl)-1-((4-methyl-3-(1-methyl-7-((6-methylpyridin-3-yl)amino)-2-oxo-1,4-dihydropyrimido[4,5-d]pyrimidin-3(2H)-yl)benzoyl)-L-valyl)pyrrolidine-2-carboxamide] (X1-VP[Aib]L-NMe2)
inhibition at 1 µM (Aurora B): 6% | inhibition at 1 µM (BRK): 0% | inhibition at 1 µM (Blk): 73% | inhibition at 1 µM (CAMK1b): 15% | inhibition at 1 µM (CDK2/cyclin E2): 0% | inhibition at 1 µM (CDK3/cyclin E): 0% | inhibition at 1 µM (CLK1): 5% | inhibition at 1 µM (CLK3): 17% | inhibition at 1 µM (DYRK1/DYRK1A): 20% | inhibition at 1 µM (DYRK2): 8% | inhibition at 1 µM (EPHA6): 5% | inhibition at 1 µM (EPHB1): 16% | inhibition at 1 µM (EPHB3): 8% | inhibition at 1 µM (FES/FPS): 18% | inhibition at 1 µM (GRK4): 1% | inhibition at 1 µM (HIPK2): 0% | inhibition at 1 µM (LATS1): 4% | inhibition at 1 µM (LATS2): 1% | inhibition at 1 µM (LKB1): 0% | inhibition at 1 µM (MEK2): 11% | inhibition at 1 µM (MINK/MINK1): 2% | inhibition at 1 µM (MKK4): 2% | inhibition at 1 µM (MKK7): 2% | inhibition at 1 µM (MLCK/MYLK): 0% | inhibition at 1 µM (MLCK2/MYLK2): 0% | inhibition at 1 µM (MLK3/MAP3K11): 34% | inhibition at 1 µM (MRCKa/CDC42BPA): 6% | inhibition at 1 µM (MUSK): 7% | inhibition at 1 µM (NEK3): 0% | inhibition at 1 µM (NEK9): 8% | inhibition at 1 µM (PAK1): 5% | inhibition at 1 µM (PKAcg): 0% | inhibition at 1 µM (PKG2/PRKG2): 11% | inhibition at 1 µM (RET): 9% | inhibition at 1 µM (ROCK2): 10% | inhibition at 1 µM (SRPK2): 0% | inhibition at 1 µM (STK32C/YANK3): 2% | inhibition at 1 µM (STK38/NDR1): 0% | inhibition at 1 µM (SYK): 0% | inhibition at 1 µM (TLK2): 0% | inhibition at 1 µM (TTBK2): 7% | inhibition at 1 µM (YES/YES1): 62% | inhibition at 1 µM (c-Kit): 27%
